Measured values taken from patent US9856220B2 (AbbVie Deutschland GmbH & Co. KG, priority 2011, dated 2018).
Counter-ions that a name gives are not always drawn.

molecular target: PDE10A (Homo sapiens (Human), UniProt Q9Y233); assay: Measurement of PDE activity (recombinant PDE, cAMP HTRF); type: biochemical; settings: 20 nM cyclic nucleotide substrate, 60 minutes at 29 C
Method: a) Measurement of PDE Activity
The recombinant PDE proteins are used in in vitro enzymatic reaction for measurement of PDE activity. These recombinant proteins, including PDE10A (human, rat and mouse PDE10) and isoforms of PDEs 1, 3, 4, and 5, were purchased from commercial vendor BPS Bioscience. The enzymatic activity of PDEs was determined by cAMP measurement kit from CisBio (IBA) using HTRF technology.
The PDE enzymatic reaction was carried out in assay buffer (20 mM Tris-HCl pH7.5, 10 mM MgCl2, 0.1% bovine serum albumin) containing enzyme and substrate. […] The substrate cyclic nucleotide (cAMP or cGMP) concentration used in the assay was 20 nM for PDE10, and 100 nM for other PDEs. The inhibitory effect of compound was determined by incubating various concentration of inhibitor in the enzymatic assay. […] Next, the compound at varying concentration was mixed with PDE enzyme. The reaction was initiated by addition of cyclic nucleotide substrate, and incubated for 60 minutes at 29 C. The reaction was stopped by addition of lysis buffer from assay kit. The cAMP-d2 and anti-cAMP cryptate in the lysis buffer detected the level of cAMP left from the PDE hydrolysis reaction. […] Thus, IC50 value of inhibitor can be obtained by plotting inhibitor concentration against PDE activity at that concentration.

Chain of PDE10A (Q9Y233 whole entry, species assumed): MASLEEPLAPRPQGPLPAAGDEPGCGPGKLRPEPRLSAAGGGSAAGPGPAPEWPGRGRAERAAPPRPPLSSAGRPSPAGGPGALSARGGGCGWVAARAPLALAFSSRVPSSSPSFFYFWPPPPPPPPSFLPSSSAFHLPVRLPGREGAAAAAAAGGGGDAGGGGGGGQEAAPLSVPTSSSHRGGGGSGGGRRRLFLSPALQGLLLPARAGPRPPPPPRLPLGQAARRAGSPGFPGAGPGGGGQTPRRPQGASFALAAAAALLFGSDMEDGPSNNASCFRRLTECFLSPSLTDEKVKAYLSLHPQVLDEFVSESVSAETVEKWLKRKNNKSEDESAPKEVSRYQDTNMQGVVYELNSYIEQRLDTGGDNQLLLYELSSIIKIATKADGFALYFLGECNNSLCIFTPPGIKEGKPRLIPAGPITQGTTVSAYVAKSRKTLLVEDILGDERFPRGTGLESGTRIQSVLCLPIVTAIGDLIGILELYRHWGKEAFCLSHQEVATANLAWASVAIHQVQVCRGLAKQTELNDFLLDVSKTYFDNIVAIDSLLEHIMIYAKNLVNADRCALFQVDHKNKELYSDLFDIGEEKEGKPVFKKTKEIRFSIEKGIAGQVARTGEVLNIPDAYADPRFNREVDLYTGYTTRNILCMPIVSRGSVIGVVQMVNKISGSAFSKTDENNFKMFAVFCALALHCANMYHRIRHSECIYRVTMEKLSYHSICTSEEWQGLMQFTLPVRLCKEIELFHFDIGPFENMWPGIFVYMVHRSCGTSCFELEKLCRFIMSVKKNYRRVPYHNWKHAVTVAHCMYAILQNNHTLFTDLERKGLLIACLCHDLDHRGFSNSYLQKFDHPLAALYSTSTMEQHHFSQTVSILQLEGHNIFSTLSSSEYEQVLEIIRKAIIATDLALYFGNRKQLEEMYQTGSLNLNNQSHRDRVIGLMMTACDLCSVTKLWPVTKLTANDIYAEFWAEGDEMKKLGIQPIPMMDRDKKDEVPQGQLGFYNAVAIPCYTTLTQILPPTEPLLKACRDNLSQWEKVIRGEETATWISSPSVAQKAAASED

Compound	IC50 [nM]
CCn1cc(C(=O)NCc2ccc(F)cc2)c2cc(OC)c(OC)cc2c1=O [Example 32, 2-Ethyl-6,7-dimethoxy-1-oxo-1,2-dihydro-isoquinoline-4-carboxylic acid 4-fluoro-benzylamide]	200 to 500
CCC(CC)n1cc(C(=O)NCc2ncc(C)o2)c2cc(OC)c(OC)cc2c1=O [Example 259, 6,7-Dimethoxy-N-((5-methyloxazol-2-yl)methyl)-1-oxo-2-(pentan-3-yl)-1,2-dihydroisoquinoline-4-carboxamide]	200 to 500
COc1cc2c(C(=O)NC3CCc4ccccc43)cn(CCc3ccc4ccccc4n3)c(=O)c2cc1OC (stereo not shown) [Example 323, N-Indan-1-yl-6,7-dimethoxy-1-oxo-2-[2-(2-quinolyl)ethyl]isoquinoline-4-carboxamide; 2,2,2-trifluoroacetic acid]	200 to 500
CCn1cc(C(=O)NCCC(C)(C)C)c2cc(OC)c(OC)cc2c1=O [Example 24, 2-Ethyl-6,7-dimethoxy-1-oxo-1,2-dihydro-isoquinoline-4-carboxylic acid (3,3-dimethyl-butyl)-amide]	200 to 500
CCn1cc(C(=O)NCc2ccncn2)c2cc(OC)c(OC)cc2c1=O [Example 139, 2-Ethyl-6,7-dimethoxy-1-oxo-N-(pyrimidin-4-ylmethyl)-1,2-dihydroisoquinoline-4-carboxamide]	200 to 500
CCC(C)CNC(=O)c1cn(CC)c(=O)c2cc(OC)c(OC)cc12 (stereo not shown) [Example 20, 2-Ethyl-6,7-dimethoxy-1-oxo-1,2-dihydro-isoquinoline-4-carboxylic acid (2-methyl-butyl)-amide]	200 to 500
CCn1cc(C(=O)NC2CCc3cc(F)ccc32)c2cc(OC)c(OC)cc2c1=O (stereo not shown) [Example 177, 2-Ethyl-N-(5-fluoro-2,3-dihydro-1H-inden-1-yl)-6,7-dimethoxy-1-oxo-1,2-dihydroisoquinoline-4-carboxamide]	200 to 500
CCn1cc(C(=O)NCc2ccccc2CN2CCOCC2)c2cc(OC)c(OC)cc2c1=O [Example 168, 2-Ethyl-6,7-dimethoxy-N-(2-(morpholinomethyl)benzyl)-1-oxo-1,2-dihydroiso-quinoline-4-carboxamide]	200 to 500
CCn1cc(C(=O)NCC2CCCCC2)c2cc(OC)c(OC)cc2c1=O [Example 28, 2-Ethyl-6,7-dimethoxy-1-oxo-1,2-dihydro-isoquinoline-4-carboxylic acid cyclohexylmethyl-amide]	200 to 500
CCn1cc(C(=O)NCc2ccc(C)cc2OC2CCOC2)c2cc(OC)c(OC)cc2c1=O (stereo not shown) [Example 303, 2-Ethyl-6,7-dimethoxy-N-(4-methyl-2-(tetrahydrofuran-3-yloxy)benzyl)-1-oxo-1,2-dihydroisoquinoline-4-carboxamide]	200 to 500
CCn1cc(C(=O)N2Cc3ccccc3C2)c2cc(OC)c(OC)cc2c1=O [Example 51, 4-(1,3-Dihydro-isoindole-2-carbonyl)-2-ethyl-6,7-dimethoxy-2H-isoquinolin-1-one]	200 to 500
CCCC(C)NC(=O)c1cn(CC)c(=O)c2cc(OC)c(OC)cc12 (stereo not shown) [Example 15, 2-Ethyl-6,7-dimethoxy-1-oxo-1,2-dihydro-isoquinoline-4-carboxylic acid (1-methyl-butyl)-amide]	200 to 500
CCC(CC)n1cc(C(=O)N[C@@H]2CCc3ccccc32)c2cc(OC)c(OC)cc2c1=O [Example 191, 2-(1-Ethyl-propyl)-6,7-dimethoxy-1-oxo-1,2-dihydro-isoquinoline-4-carboxylic acid (R)-indan-1-ylamide]	200 to 500
CCC(CC)n1cc(C(=O)NCc2scnc2C)c2cc(OC)c(OC)cc2c1=O [Example 249, 6,7-Dimethoxy-N-((4-methylthiazol-5-yl)methyl)-1-oxo-2-(pentan-3-yl)-1,2-dihydroisoquinoline-4-carboxamide]	200 to 500
CCn1cc(C(=O)NCc2ccc(C)cc2OC)c2cc(OC)c(OC)cc2c1=O [Example 308, 2-Ethyl-6,7-dimethoxy-N-(2-methoxy-4-methylbenzyl)-1-oxo-1,2-dihydroisoquinoline-4-carboxamide]	200 to 500
CCC(CC)n1cc(C(=O)NCc2ccc(C#N)o2)c2cc(OC)c(OC)cc2c1=O [Example 264, N-((5-Cyanofuran-2-yl)methyl)-6,7-dimethoxy-1-oxo-2-(pentan-3-yl)-1,2-dihydroisoquinoline-4-carboxamide]	200 to 500
CCc1nc(CNC(=O)c2cn(C(CC)CC)c(=O)c3cc(OC)c(OC)cc23)cs1 [Example 255, N-((2-Ethylthiazol-4-yl)methyl)-6,7-dimethoxy-1-oxo-2-(pentan-3-yl)-1,2-dihydroisoquinoline-4-carboxamide]	200 to 500
CCn1cc(C(=O)NCc2ccc(C)cc2OCC2CC2)c2cc(OC)c(OC)cc2c1=O [Example 290, N-[[2-(Cyclopropylmethoxy)-4-methyl-phenyl]methyl]-2-ethyl-6,7-dimethoxy-1-oxo-isoquinoline-4-carboxamide]	200 to 500
CCn1cc(C(=O)NC(C)CC(C)C)c2cc(OC)c(OC)cc2c1=O (stereo not shown) [Example 23, 2-Ethyl-6,7-dimethoxy-1-oxo-1,2-dihydro-isoquinoline-4-carboxylic acid (1,3-dimethyl-butyl)-amide]	200 to 500
CCn1cc(C(=O)NC2CCc3cc(C)ccc32)c2cc(OC)c(OC)cc2c1=O (stereo not shown) [Example 175, 2-Ethyl-6,7-dimethoxy-N-(5-methyl-2,3-dihydro-1H-inden-1-yl)-1-oxo-1,2-dihydroisoquinoline-4-carboxamide]	200 to 500
CCC(C)Oc1cc(C)ccc1CNC(=O)c1cn(CC)c(=O)c2cc(OC)c(OC)cc12 (stereo not shown) [Example 298, N-(2-sec-Butoxy-4-methylbenzyl)-2-ethyl-6,7-dimethoxy-1-oxo-1,2-dihydroisoquinoline-4-carboxamide]	200 to 500
CCC(CC)n1cc(C(=O)NCc2ccccc2CN(C)C)c2cc(OC)c(OC)cc2c1=O [Example 187, 2-(1-Ethyl-propyl)-6,7-dimethoxy-1-oxo-1,2-dihydro-isoquinoline-4-carboxylic acid 2-dimethylaminomethyl-benzylamide hydrochloride]	200 to 500

The next lines start with the values.

IC50 [nM]	Compound
200 to 500	CCn1cc(C(=O)NC2CCc3c(F)cccc32)c2cc(OC)c(OC)cc2c1=O (stereo not shown) [Example 173, 2-Ethyl-N-(4-fluoro-2,3-dihydro-1H-inden-1-yl)-6,7-dimethoxy-1-oxo-1,2-dihydroisoquinoline-4-carboxamide]
100 to 200	CCC(CC)n1cc(C(=O)NCc2sccc2C)c2cc(OC)c(OC)cc2c1=O [Example 258, 6,7-Dimethoxy-N-((3-methylthiophen-2-yl)methyl)-1-oxo-2-(pentan-3-yl)-1,2-dihydroisoquinoline-4-carboxamide]
< 100	CCC(CC)n1cc(C(=O)NC2CCc3c(C)cccc32)c2cc(OC)c(OC)cc2c1=O (stereo not shown) [Example 254, 6,7-Dimethoxy-N-(4-methyl-2,3-dihydro-1H-inden-1-yl)-1-oxo-2-(pentan-3-yl)-1,2-dihydroisoquinoline-4-carboxamide]
100 to 200	CCn1cc(C(=O)NCc2cccc(Cl)c2)c2cc(OC)c(OC)cc2c1=O [Example 142, N-(3-Chlorobenzyl)-2-ethyl-6,7-dimethoxy-1-oxo-1,2-dihydroisoquinoline-4-carboxamide]
100 to 200	CCn1cc(C(=O)NC2CCc3sccc32)c2cnc(OC)cc2c1=O (stereo not shown) [Example 230, 2-Ethyl-7-methoxy-1-oxo-1,2-dihydro-[2,6]naphthyridine-4-carboxylic acid (5,6-dihydro-4H-cyclopenta[b]thiophen-4-yl)-amide]
< 100	CCC(CC)n1cc(C(=O)NC2CCc3cc(C)ccc32)c2cc(OC)c(OC)cc2c1=O (stereo not shown) [Example 253, 6,7-Dimethoxy-N-(5-methyl-2,3-dihydro-1H-inden-1-yl)-1-oxo-2-(pentan-3-yl)-1,2-dihydroisoquinoline-4-carboxamide]
100 to 200	CCC(CC)n1cc(C(=O)NCc2ccc(F)c(F)c2)c2cc(OC)c(OC)cc2c1=O [Example 189, 2-(1-Ethyl-propyl)-6,7-dimethoxy-1-oxo-1,2-dihydro-isoquinoline-4-carboxylic acid 3,4-difluoro-benzylamide]
100 to 200	CCn1cc(C(=O)NCc2ccccc2)c2cc(OC)c(OC)cc2c1=O [Example 26, 2-Ethyl-6,7-dimethoxy-1-oxo-1,2-dihydro-isoquinoline-4-carboxylic acid benzylamide]
< 100	CCC(CC)n1cc(C(=O)NC2COc3ccccc32)c2cc(OC)c(OC)cc2c1=O (stereo not shown) [Example 194, 2-(1-Ethyl-propyl)-6,7-dimethoxy-1-oxo-1,2-dihydro-isoquinoline-4-carboxylic acid (2,3-dihydro-benzofuran-3-yl)-amide]
100 to 200	CCCCNC(=O)c1cn(CC)c(=O)c2cc(OC)c(OC)cc12 [Example 1, 2-Ethyl-6,7-dimethoxy-1-oxo-1,2-dihydro-isoquinoline-4-carboxylic acid butylamide]
100 to 200	CCC(CC)n1cc(C(=O)NCc2ccc(C)s2)c2cc(OC)c(OC)cc2c1=O [Example 237, 6,7-Dimethoxy-N-((5-methylthiophen-2-yl)methyl)-1-oxo-2-(pentan-3-yl)-1,2-dihydroisoquinoline-4-carboxamide]
100 to 200	CCC(CC)n1cc(C(=O)NCc2cc(C)cs2)c2cc(OC)c(OC)cc2c1=O [Example 257, 6,7-Dimethoxy-N-((4-methylthiophen-2-yl)methyl)-1-oxo-2-(pentan-3-yl)-1,2-dihydroisoquinoline-4-carboxamide]
